# System: HEK293 cells
# Experiment: Preliminary screening as DNA vectors, GFP transfection of HEK293 cells
# Format: cell-based
# Conditions: amino lipid/DOPE liposome with 75 ng plasmid DNA (psin-EGFP-IRES-Puro); number of GFP-expressing cells divided by total nuclei (Hoechst)
# Procedure, shortened: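 HEK293 cells in DMEM/10% FBS transfected with 75 ng EGFP plasmid per well complexed with amino lipid/DOPE liposomes in pH 5.6 sodium acetate. Hoechst nuclear stain added 20-24 h post-transfection, then cells cultured another 20-24 h. Confocal imaging gives GFP-positive cells as % of total nuclei.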
row,SMILES,Absolute DNA transfection efficiency in HEK293 cells
1,CCCCCCCCCCCCCCSc1nc(NCCN2CCCCC2)nc(N(CCCCCCCCCCCC)CCCCCCCCCCCC)n1 [S14^2N12 D4],0.0%
2,CCCCCCCCCCCCCCSc1nc(NCCN2CCN(C)CC2)nc(N(CCCCCCCCCCCC)CCCCCCCCCCCC)n1 [S14^2N12 D5],0.0%
3,CCCCCCCCCCCCCCSc1nc(NCCCN(C)C)nc(N(CCCCCCCCCCCC)CCCCCCCCCCCC)n1 [S14^2N12 D6],0.2%
4,CCCCCCCCCCCCCCSc1nc(NCCN(CC)CC)nc(N(CCCCCCCCCCCC)CCCCCCCCCCCC)n1 [S14^2N12 D7],0.1%
5,CCCCCCCCCCCCCCSc1nc(NCCCN2CCOCC2)nc(N(CCCCCCCCCCCC)CCCCCCCCCCCC)n1 [S14^2N12 D8],0.0%
6,CCCCCCCCCCCCCCSc1nc(NCCCN2CCN(C)CC2)nc(N(CCCCCCCCCCCC)CCCCCCCCCCCC)n1 [S14^2N12 D9],0.0%
7,CCCCCCCCCCCCCCSc1nc(NCC2CCN(C)CC2)nc(N(CCCCCCCCCCCC)CCCCCCCCCCCC)n1 [S14^2N12 D10],0.0%
8,CCCCCCCCCCCCCCCSc1nc(NCCCCCC)nc(NCCN(C)C)n1 [S15N6 D1],21.2%
9,CCCCCCCCCCCCCCCSc1nc(NCCCCCC)nc(NCCN2CCOCC2)n1 [S15N6 D2],34.1%
10,CCCCCCCCCCCCCCCSc1nc(NCCCCCC)nc(NCCN2CCCC2)n1 [S15N6 D3],32.4%
11,CCCCCCCCCCCCCCCSc1nc(NCCCCCC)nc(NCCN2CCCCC2)n1 [S15N6 D4],21.6%
12,CCCCCCCCCCCCCCCSc1nc(NCCCCCC)nc(NCCN2CCN(C)CC2)n1 [S15N6 D5],14.9%
13,CCCCCCCCCCCCCCCSc1nc(NCCCCCC)nc(NCCCN(C)C)n1 [S15N6 D6],34.2%
14,CCCCCCCCCCCCCCCSc1nc(NCCCCCC)nc(NCCN(CC)CC)n1 [S15N6 D7],5.1%
15,CCCCCCCCCCCCCCCSc1nc(NCCCCCC)nc(NCCCN2CCOCC2)n1 [S15N6 D8],19.8%
16,CCCCCCCCCCCCCCCSc1nc(NCCCCCC)nc(NCCCN2CCN(C)CC2)n1 [S15N6 D9],15.4%
17,CCCCCCCCCCCCCCCSc1nc(NCCCCCC)nc(NCC2CCN(C)CC2)n1 [S15N6 D10],26.5%
18,CCCCCCCCCCCCCCCSc1nc(NCCCCCCC)nc(NCCN(C)C)n1 [S15N7 D1],18.2%
19,CCCCCCCCCCCCCCCSc1nc(NCCCCCCC)nc(NCCN2CCOCC2)n1 [S15N7 D2],23.0%
20,CCCCCCCCCCCCCCCSc1nc(NCCCCCCC)nc(NCCN2CCCC2)n1 [S15N7 D3],19.7%
21,CCCCCCCCCCCCCCCSc1nc(NCCCCCCC)nc(NCCN2CCCCC2)n1 [S15N7 D4],8.1%
22,CCCCCCCCCCCCCCCSc1nc(NCCCCCCC)nc(NCCN2CCN(C)CC2)n1 [S15N7 D5],12.9%
23,CCCCCCCCCCCCCCCSc1nc(NCCCCCCC)nc(NCCCN(C)C)n1 [S15N7 D6],32.1%
24,CCCCCCCCCCCCCCCSc1nc(NCCCCCCC)nc(NCCN(CC)CC)n1 [S15N7 D7],13.3%
25,CCCCCCCCCCCCCCCSc1nc(NCCCCCCC)nc(NCCCN2CCOCC2)n1 [S15N7 D8],14.5%
26,CCCCCCCCCCCCCCCSc1nc(NCCCCCCC)nc(NCCCN2CCN(C)CC2)n1 [S15N7 D9],17.1%

row,SMILES,Absolute DNA transfection efficiency in HEK293 cells
1,CCCCCCCCCCCCCCCSc1nc(NCCCCCCC)nc(NCC2CCN(C)CC2)n1 [S15N7 D10],33.4%
2,CCCCCCCCCCCCCCCSc1nc(NCCCCCCCC)nc(NCCN(C)C)n1 [S15N8 D1],8.9%
3,CCCCCCCCCCCCCCCSc1nc(NCCCCCCCC)nc(NCCN2CCOCC2)n1 [S15N8 D2],19.3%
4,CCCCCCCCCCCCCCCSc1nc(NCCCCCCCC)nc(NCCN2CCCC2)n1 [S15N8 D3],12.7%
5,CCCCCCCCCCCCCCCSc1nc(NCCCCCCCC)nc(NCCN2CCCCC2)n1 [S15N8 D4],3.0%
6,CCCCCCCCCCCCCCCSc1nc(NCCCCCCCC)nc(NCCN2CCN(C)CC2)n1 [S15N8 D5],17.3%
7,CCCCCCCCCCCCCCCSc1nc(NCCCCCCCC)nc(NCCCN(C)C)n1 [S15N8 D6],23.9%
8,CCCCCCCCCCCCCCCSc1nc(NCCCCCCCC)nc(NCCN(CC)CC)n1 [S15N8 D7],6.7%
9,CCCCCCCCCCCCCCCSc1nc(NCCCCCCCC)nc(NCCCN2CCOCC2)n1 [S15N8 D8],7.9%
10,CCCCCCCCCCCCCCCSc1nc(NCCCCCCCC)nc(NCCCN2CCN(C)CC2)n1 [S15N8 D9],11.6%
11,CCCCCCCCCCCCCCCSc1nc(NCCCCCCCC)nc(NCC2CCN(C)CC2)n1 [S15N8 D10],19.4%
12,CCCCCCCCCCCCCCCSc1nc(NCCCCCCCCC)nc(NCCN(C)C)n1 [S15N9 D1],21.3%
13,CCCCCCCCCCCCCCCSc1nc(NCCCCCCCCC)nc(NCCN2CCOCC2)n1 [S15N9 D2],9.7%
14,CCCCCCCCCCCCCCCSc1nc(NCCCCCCCCC)nc(NCCN2CCCC2)n1 [S15N9 D3],30.1%
15,CCCCCCCCCCCCCCCSc1nc(NCCCCCCCCC)nc(NCCN2CCCCC2)n1 [S15N9 D4],4.5%
16,CCCCCCCCCCCCCCCSc1nc(NCCCCCCCCC)nc(NCCN2CCN(C)CC2)n1 [S15N9 D5],17.5%
17,CCCCCCCCCCCCCCCSc1nc(NCCCCCCCCC)nc(NCCCN(C)C)n1 [S15N9 D6],23.1%
18,CCCCCCCCCCCCCCCSc1nc(NCCCCCCCCC)nc(NCCN(CC)CC)n1 [S15N9 D7],16.4%
19,CCCCCCCCCCCCCCCSc1nc(NCCCCCCCCC)nc(NCCCN2CCOCC2)n1 [S15N9 D8],10.1%
20,CCCCCCCCCCCCCCCSc1nc(NCCCCCCCCC)nc(NCCCN2CCN(C)CC2)n1 [S15N9 D9],13.4%
21,CCCCCCCCCCCCCCCSc1nc(NCCCCCCCCC)nc(NCC2CCN(C)CC2)n1 [S15N9 D10],35.1%
22,CCCCCCCCCCCCCCCSc1nc(NCCCCCCCCCCC)nc(NCCN(C)C)n1 [S15N11 D1],12.9%
23,CCCCCCCCCCCCCCCSc1nc(NCCCCCCCCCCC)nc(NCCN2CCOCC2)n1 [S15N11 D2],19.3%
24,CCCCCCCCCCCCCCCSc1nc(NCCCCCCCCCCC)nc(NCCN2CCCC2)n1 [S15N11 D3],20.9%
25,CCCCCCCCCCCCCCCSc1nc(NCCCCCCCCCCC)nc(NCCN2CCCCC2)n1 [S15N11 D4],8.9%
26,CCCCCCCCCCCCCCCSc1nc(NCCCCCCCCCCC)nc(NCCN2CCN(C)CC2)n1 [S15N11 D5],11.8%

# — patent publication US20230123334A1, “AMINO LIPID COMPOUND, PREPARATION METHOD THEREFOR, AND APPLICATION THEREOF” (SHENZHEN SHENXIN BIOTECHNOLOGY CO., LTD., priority 2020, published 2023)
